# Legend:
# [1] = system: DCs and T cells in LN chip; experiment: OVA I model antigen initiating adaptive immune process in the LN chip; type: cell-based, human
# DCs and FRCs = experiment: CCL19 and CCL21 secretion by DCs and FRCs in paracortical area of LN chip under TNF-α (ELISA); type: cell-based, human; details: inflammatory conditions affected by TNF-α
Substance,DC maturation (imDCs to mDCs) ([1]; OVA I as model antigen in LN chip),T cell activation ([1]; OVA I-induced mDCs vs imDCs),T cell migration ([1]; OVA I-induced mDCs vs imDCs),T cell proliferation ([1]; OVA I-induced mDCs vs imDCs),secretion of CCL19 by DCs and FRCs (DCs and FRCs),secretion of CCL21 by DCs and FRCs (DCs and FRCs)
"Ovalbimin [OVA I, model antigen (Sigma Aldrich) to initiate the adaptive immune process in the LN chip]",transformed into mDCs,enhanced,enhanced,enhanced,,
TNF-α,,,,,increases,increases
